Source: the supplement of paper PMC10307832

What was measured:
Test in all cases: relative viability (nuclei count vs DMSO), 5 days (fraction); higher = more cells survive
[1] = compound: CCCS(=O)(=O)Nc1ccc(F)c(C(=O)c2c[nH]c3ncc(-c4ccc(Cl)cc4)cc23)c1F [Vemurafenib] + O=C(CCCCCCC(=O)Nc1ccccc1)NO [Vorinostat] (partner 1 µM)
Outline: (§1)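 A single step with final 0.05% Triton X-100, 1% formaldehyde and 1 ug/ml Hoechst fixed the cells and stained nuclei 5 days after treatment. Lung cancer cell lines in 1536-well plates had been treated by pin tool the day after seeding with one drug alone or a fixed anchor-drug dose plus five library-drug doses (not always all listed) in √10 steps, and nuclei were counted on 4× images. Relative viability is the ratio of nuclei in treated wells to nuclei in vehicle wells, taken as the median of duplicate plates.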

[2] = compound: COc1cccc2cc(-c3nc([C@H]4CC[C@H](C(=O)O)CC4)n4ncnc(N)c34)[nH]c12 [OSI-027] + Cc1nc(Nc2ncc(C(=O)Nc3c(C)cccc3Cl)s2)cc(N2CCN(CCO)CC2)n1 [Dasatinib] (partner 0.075 µM)
Outline: as §1

[3] = compound: COc1cccc2cc(-c3nc([C@H]4CC[C@H](C(=O)O)CC4)n4ncnc(N)c34)[nH]c12 [OSI-027] + Nc1ncn([C@H]2C[C@H](O)[C@@H](CO)O2)c(=O)n1 [Decitabine] (partner 2 µM)
Outline: as §1

[4] = compound: Cc1nc(NC(=O)N2CCC[C@H]2C(N)=O)sc1-c1ccnc(C(C)(C)C(F)(F)F)c1 [Alpelisib] + NC(=O)Nc1cc(-c2cccc(F)c2)sc1C(=O)N[C@H]1CCCNC1 [AZD7762] (partner 0.2 µM)
Outline: as §1

Cell Line	relative viability ([1]; first compound 0.03162 µM)	relative viability ([1]; first compound 0.1 µM)	relative viability ([1]; first compound 0.3162 µM)	relative viability ([1]; first compound 1 µM)	relative viability ([2]; first compound 0.01 µM)	relative viability ([2]; first compound 0.03162 µM)	relative viability ([2]; first compound 0.1 µM)	relative viability ([2]; first compound 0.3162 µM)	relative viability ([2]; first compound 1 µM)	relative viability ([3]; first compound 0.01 µM)	relative viability ([3]; first compound 0.03162 µM)	relative viability ([3]; first compound 0.1 µM)	relative viability ([3]; first compound 0.3162 µM)	relative viability ([3]; first compound 1 µM)	relative viability ([4]; first compound 0.04 µM)	relative viability ([4]; first compound 0.1265 µM)	relative viability ([4]; first compound 0.4 µM)	relative viability ([4]; first compound 1.265 µM)	relative viability ([4]; first compound 4 µM)
NCI-H1666	0.972	1.05	1.08	1.01	0.825	0.778	0.732	0.733	0.463	0.719	0.7	0.741	0.624	0.555	0.902	0.762	1.03	0.865	0.711
NCI-H1734	0.809	0.783	0.759	0.702	0.473	0.408	0.45	0.388	0.282	0.559	0.595	0.503	0.265	0.417	0.604	0.556	0.584	0.397	0.209
NCI-H1755	0.749	0.728	0.68	0.778	0.392	0.458	0.39	0.42	0.229	0.75	0.716	0.702	0.654	0.503	0.378	0.544	0.465	0.326	0.362
NCI-H1793	0.652	0.426	0.78	0.702	0.352	0.391	0.389	0.279	0.193	0.457	0.493	0.436	0.329	0.259	0.473	0.332	0.383	0.374	0.23
NCI-H1915	0.468	0.468	0.455	0.478	0.289	0.307	0.279	0.24	0.145	0.25	0.257	0.262	0.26	0.242	0.688	0.713	0.69	0.676	0.611
NCI-H1944	0.538	–	0.671	0.515	0.192	0.204	0.191	0.178	0.162	0.427	0.46	0.405	0.443	0.303	0.452	0.6	0.605	0.3	0.344
NCI-H1975	0.715	0.661	0.602	0.726	0.309	0.362	0.334	0.301	0.316	0.392	0.395	0.398	0.434	0.4	0.731	0.621	0.731	0.463	0.374
NCI-H1993	0.739	–	1.02	0.876	0.516	0.543	0.469	0.541	0.549	0.53	0.538	0.569	0.432	0.431	0.722	0.656	0.695	0.539	0.472
NCI-H2085	0.703	0.736	0.618	0.968	0.199	0.222	0.188	0.227	0.211	0.545	0.562	0.611	0.52	0.446	0.946	0.781	1.09	0.944	0.865
NCI-H2087	0.894	0.958	0.531	0.716	0.856	0.937	0.923	0.611	0.453	0.268	0.228	0.24	0.214	0.16	1.39	1.3	1.59	1.22	1.36
